The target of assay [1] is T1, rat MCH1 receptor (Rattus norvegicus, UniProt P97639). In words: rMCH FLIPR calcium mobilization assay (CHOK1-Gqi cells). It counts as cell-based. More on the design: expressed in transfected cells; host or cells: CHOK1-Gqi. Particulars: CHOK1-Gqi cells, rat MCH1 receptor; 100 μM or less list; read-out: Ki in the rMCH FLIPR assay. The procedure: Pharmacological analyses were conducted using either a HT-PS100 device (Axiom Biotechnologies, San Diego, Calif.), which provides high-resolution dose-response fluorometric measurements of [Ca^++]i mobilization, or using a FLIPR® device (Molecular Devices, Sunnyvale, Calif.).
T1 sequence (P97639 whole entry): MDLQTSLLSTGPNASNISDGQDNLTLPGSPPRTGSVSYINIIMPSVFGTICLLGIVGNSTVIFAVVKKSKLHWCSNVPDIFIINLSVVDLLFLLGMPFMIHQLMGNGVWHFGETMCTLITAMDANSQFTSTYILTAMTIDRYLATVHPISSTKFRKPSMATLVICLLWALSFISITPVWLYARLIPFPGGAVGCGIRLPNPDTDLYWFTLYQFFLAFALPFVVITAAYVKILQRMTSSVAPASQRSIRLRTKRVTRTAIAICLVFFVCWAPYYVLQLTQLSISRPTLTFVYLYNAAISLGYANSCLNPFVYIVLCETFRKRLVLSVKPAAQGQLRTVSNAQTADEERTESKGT
Materials: Pharmacological analysis was conducted using a FLIPR® device (Molecular Devices, Sunnyvale, Calif.). CHOK1-Gqi cells were stably transfected with the rat MCH1 receptor and maintained under G418 antibiotic pressure. FLIPR® assay buffer consisted of phenol red-free DMEM+2.5 mM probenecid. […]. Test compounds were prepared as 10 mM stocks in 100% DMSO and diluted to a top end working concentration of 10 μM in 96 well black, flat bottom, collagen-I coated plates (Becton Dickinson, Bedford, Mass.).
Methods: CHOK1-Gqi cells stably expressing MCH1R were maintained in Dulbeco's modified Eagle's medium (GIBCO/Life Technologies, Rockville, Md.) supplemented with 2 mM glutamine and 10% dialyzed fetal bovine serum (HyCLone, Logan, Utah) at 37° C., 5% CO2. Cells were harvested by 10′ treatment with Versene (GIBCO/Life Technologies) followed by trituration, washing twice with cold (4° C.) hybridoma medium (Serum/Protein free, with L-glutamine, sodium bicarbonate, MOPS buffer) (Sigma-Aldrich Corp, St. Louis, Mo.) and replated onto 96 well black, flat bottom, collagen-I coated plates to a density of 10,000 cells/well. The cells were then loaded with the fluorescent calcium indicator Fura-2 (Molecular Probes, Eugene, Oreg.) at 1.6 μM for 60′ at room temperature. The loaded cells were then washed twice with 90 μl/well of wash buffer (1×HBSS, 20 mM HEPES, 2.5 mM probenecid).
Receptor-stimulated intracellular calcium responses were detected using FLIPR® by monitoring increases in the Fura-2 fluorescence response.
Test compounds were screened for MCH1R activity in the FLIPR® for both agonist and antagonist action. Agonist mode challenges were conducted at a maximum gradient concentration of 1 μM. Antagonist activity was tested by 10 min pre-incubation of cells at a compound concentration of defined to be 300× the EC50 of MCH (typically 1 μM), with subsequent introduction of MCH at a concentration 5-fold of EC50 as determined in preliminary experiments. […].
Several fixed concentrations of antagonist compounds were prepared in 10-fold increments, and presented to the cells in a gradient of increasing MCH concentration. Values for compound pA2 were calculated by linear regression of MCH EC50s as a function of antagonist concentration.

The target in assay [2] is T2, human MCH 1 receptor (hMCH1R) (Homo sapiens, UniProt Q99705).
T2 construct: expressed in transfected cells; host or cells: HEK 293 (membranes)
T2 sequence (Q99705 whole entry): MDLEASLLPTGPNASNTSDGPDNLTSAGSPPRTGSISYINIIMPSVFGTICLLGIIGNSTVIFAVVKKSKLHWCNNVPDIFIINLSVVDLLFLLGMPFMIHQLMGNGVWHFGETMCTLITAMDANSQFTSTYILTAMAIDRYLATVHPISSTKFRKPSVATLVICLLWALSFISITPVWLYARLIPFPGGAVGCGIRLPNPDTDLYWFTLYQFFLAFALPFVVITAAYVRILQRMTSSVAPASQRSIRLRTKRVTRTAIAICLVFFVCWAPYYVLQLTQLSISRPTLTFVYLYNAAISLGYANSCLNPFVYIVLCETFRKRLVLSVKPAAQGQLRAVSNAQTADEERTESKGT
In words: 125I-MCH ligand binding assay, hMCH. Conditions: HEK 293 membranes, 0.2 nM 125I native-MCH, read-out: IC50 in the hMCH binding assay. The procedure: Human embryonic kidney cells (293 total) expressing either human, rat, or mouse MCH receptor were harvested from 150 mm culture dishes using PBS. Spinning at 1500 rpm for 2 minutes initially pelleted cells. The resulting pellet was then homogenized in 15 mL ice cold sucrose buffer (25 mM HEPES, 0.3 M sucrose, pH 7.4) with a motorized, glass fitted, Teflon® homogenizer. The homogenate was centrifuged at 48,000×g at 4° C. for 10 minutes, resuspended in 15 mL assay buffer (25 mM HEPES, 10 mM mgCl2, 0.2% BSA, 0.1 mg/mL STI, 0.1 mg/mL Pefabloc®, 1 μM Phosphoramidon, pH 7.4) with a Tissue-Tearor® (Biospec Products) and centrifuged again at 48,000×g for 10 minutes. The pellet was homogenized for a third time in 15 mL assay buffer using the Tissue-Tearor® and again centrifuged at 48,000×g for 10 minutes. The resulting pellet was resuspended in assay buffer at a wet weight concentration of 10-20 mg/mL.
Binding assays were determined as described below using mouse, rat or human MCH 1 receptors (mMCH1R, rMCH1R, and hMCH1R, respectively) expressed in HEK 293; IC50 values were calculated.
Binding assays were performed in 96-well U-bottom plates. Membranes (100 μg tissue) were incubated at 30° C. for 90 minutes in assay buffer with various peptides in the presence of 0.2 nM ^125I native-MCH (Perkin-Elmer Life Sciences, Boston, Mass.) in 100 μL total volume. Non-specific binding was assessed in the presence of 1 μM cold native-MCH. The reaction was terminated by rapid filtration through Unfilter-96 GF/C glass fiber filter plates (FilterMate® 196 Harvester, Packard Instrument Co., Meriden, Conn.) pre-soaked in PBS/0.5% BSA, followed by three washes with 300 μL ice-cold water. Bound radioactivity was determined using a TopCount® microplate scintillation and luminescence counter (Packard Instrument Co., Meriden, Conn.). Nonlinear regression analyses of drug concentration curves were performed using GraphPad Prism® (GraphPad Software, Inc., San Diego, Calif.).

Assay [3] concerns the target T3, rat MCH 1 receptor (rMCH1R) (Rattus norvegicus, UniProt P97639).
T3 construct: expressed in transfected cells; host or cells: HEK 293 (membranes)
In words: 125I-MCH ligand binding assay, rMCH. Conditions: HEK 293 membranes, 0.2 nM 125I native-MCH, read-out: IC50 in the rMCH binding assay. In short, it runs like this: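 HEK293 membranes expressing rat or human MCH1R (100 µg tissue) were incubated for 90 min at 30 °C with 0.2 nM 125I-native-MCH and test compound in HEPES/MgCl2/BSA buffer with protease inhibitors, pH 7.4. Non-specific binding used 1 µM cold MCH. Filter-bound radioactivity gave IC50 by nonlinear regression.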

For the next assay, the target named is T4, human MCH receptor (Homo sapiens, UniProt Q99705).
T4 construct: expressed in transfected cells
T4 sequence (Q99705 whole entry): as above
The assay can be described thus: hMCH FLIPR calcium mobilization assay. Particulars: 100 μM or less list; read-out: Ki in the hMCH FLIPR assay. It counts as cell-based. A general note: Calcium assays in cells follow changes in intracellular calcium, usually with a dye or a luminescent sensor.

Assay [4] addresses T1, rat MCH1 receptor. The assay can be described thus: HT-PS100 calcium mobilization functional assay. Format: cell-based. More on the design: expressed in transfected cells. Conditions: HEK 293 cells stably transfected with rat MCH1 receptor; 100 nM or less list; read-out: Ki in the HT-PS100 assay.

Like-named read-outs stand apart in the source and are kept apart here.

T3 sequence (P97639 whole entry): as the sequence (P97639 whole entry) above

Turning to `Cc1cccc(C)c1-n1nnnc1[C@H](c1cccc(C#N)c1)N1CCN(C/C=C/c2ccccc2)CC1` (stereo in doubt) [Compound 133, 3-{[1-(2,6-dimethylphenyl)-1H-tetrazol-5-yl]-[4-(3-phenylallyl)piperazin-1-yl]methyl}benzonitrile], the Ki on rat MCH1 receptor [1] and on human MCH receptor was at most 100 µM in each case. Besides, the IC50 in assay [2] (100 μM or less list) and in assay [3] (100 μM or less list) was at most 100 µM in each case.
For the compound `Cc1cccc(C)c1-n1nnnc1[C@@H](c1ccc(-n2ccnc2)cc1)N1CCN(C/C=C/c2ccccc2)CC1` (stereo in doubt) [Compound 134, 1-[[1-(2,6-dimethylphenyl)-1H-tetrazol-5-yl]-(4-imidazol-1-ylphenyl)methyl]-4-(3-phenylallyl)piperazine], the Ki at rat MCH1 receptor [1] and on human MCH receptor was at most 100 µM in each case. For the same compound, the IC50 in assay [2] (100 nM or less list) is at most 0.1 µM; in assay [2] (100 μM or less list), at most 100 µM; in assay [3] (100 nM or less list) it was at most 0.1 µM; in assay [3] (100 μM or less list) it was at most 100 µM.
For the compound `Cc1cccc(C)c1-n1nnnc1[C@H](c1ccc(Oc2ccccc2)cc1)N1CCN(C/C=C/c2ccccc2)CC1` (racemic) [Compound 76, 1-[[1-(2,6-dimethylphenyl)-1H-tetrazol-5-yl]-(4-phenoxyphenyl)methyl]-4-(3-phenylallyl)piperazine], the Ki was at most 100 µM at rat MCH1 receptor [1] and at most 100 nM on rat MCH1 receptor [4]. The IC50 was at most 0.1 µM in assay [2] (100 nM or less list), at most 100 µM in assay [2] (100 μM or less list) and at most 100 µM in assay [3] (100 μM or less list).
In the case of `Cc1cccc(C)c1-n1nnnc1[C@H](c1cccc(C(F)(F)F)c1)N1CCN(C/C=C/c2ccccc2O)CC1` (racemic) [Compound 151, 2-(3-{4-[[1-(2,6-dimethylphenyl)-1H-tetrazol-5-yl]-(3-trifluoromethylphenyl)methyl]piperazin-1-yl}propenyl)phenol], the Ki on rat MCH1 receptor [1] and at human MCH receptor was at most 100 µM in each case. For the same compound, the IC50 in assay [2] (100 μM or less list) and in assay [3] (100 μM or less list) was at most 100 µM in each case.
Regarding `C(=C\c1ccccc1)/CN1CCN([C@@H](c2ccccc2)c2nnnn2-c2ccc3[nH]ccc3c2)CC1` (racemic) [Compound 20], the Ki on rat MCH1 receptor [1] and on human MCH receptor was at most 100 µM in each case. Also, the values for the IC50 in assay [2] (100 nM or less list), in assay [2] (100 μM or less list) and in assay [3] (100 μM or less list) were at most 0.1 µM, at most 100 µM and at most 100 µM, respectively.
With `Cc1cccc(C)c1-n1nnnc1[C@H](c1cccc(-c2ccccc2)c1)N1CCN(C/C=C/c2ccccc2)CC1` (racemic) [Compound 143, 1-{biphenyl-3-yl-[1-(2,6-dimethylphenyl)-1H-tetrazol-5-yl]methyl}-4-(3-phenylallyl)piperazine], the Ki at rat MCH1 receptor [1] and at human MCH receptor was at most 100 µM throughout. For the same compound, the IC50 in assay [2] (100 μM or less list) and in assay [3] (100 μM or less list) was at most 100 µM throughout.
Take `Cc1cccc(C)c1-n1nnnc1[C@H](c1ccc(-c2ccccc2)cc1)N1CCN(C/C=C/c2ccccc2)CC1` (racemic) [Compound 64, 1-{biphenyl-4-yl-[1-(2,6-dimethylphenyl)-1H-tetrazol-5-yl]methyl}-4-(3-phenylallyl)piperazine]: the inhibition constant Ki was at most 100 µM on rat MCH1 receptor [1] and at most 100 nM on rat MCH1 receptor [4]. Further, the IC50 in assay [2] (100 nM or less list) is at most 0.1 µM; in assay [2] (100 μM or less list) it was at most 100 µM; in assay [3] (100 μM or less list), at most 100 µM.
As for `Cc1cccc(C)c1-n1nnnc1[C@H](c1ccc(-n2ccnc2)cc1)N1CCN(C/C=C/c2ccccc2)CC1` (stereo in doubt) [Compound 135, 1-[[1-(2,6-dimethylphenyl)-1H-tetrazol-5-yl]-(4-imidazol-1-ylphenyl)methyl]-4-(3-phenylallyl)piperazine], the Ki at rat MCH1 receptor [1] and at human MCH receptor was at most 100 µM in each case. In addition, the IC50 in assay [2] (100 μM or less list) and in assay [3] (100 μM or less list) was at most 100 µM throughout.
In the case of `Cc1cccc(C)c1-n1nnnc1[C@H](c1cccc(C(F)(F)F)c1)N1CCN(Cc2c[nH]c3ccccc23)CC1` (racemic) [Compound 150, 3-{4-[[1-(2,6-dimethylphenyl)-1H-tetrazol-5-yl]-(3-trifluoromethylphenyl)methyl]piperazin-1-ylmethyl}-1H-indole], the Ki on rat MCH1 receptor [1] and at human MCH receptor was at most 100 µM in each case. Besides, the IC50 in assay [2] (100 μM or less list) and in assay [3] (100 μM or less list) was at most 100 µM in each case.
As for `Cc1cccc(C)c1-n1nnnc1[C@H](c1cccc(C(F)(F)F)c1)N1CCN(CC=C(c2ccccc2)c2ccccc2)CC1` (racemic) [Compound 144, 1-[[1-(2,6-dimethylphenyl)-1H-tetrazol-5-yl]-(3-trifluoromethylphenyl)methyl]-4-(3,3-diphenylallyl)piperazine], the Ki on rat MCH1 receptor [1] and at human MCH receptor was at most 100 µM each time. Moreover, the IC50 was at most 0.1 µM in assay [2] (100 nM or less list), at most 100 µM in assay [2] (100 μM or less list), at most 0.1 µM in assay [3] (100 nM or less list) and at most 100 µM in assay [3] (100 μM or less list).
Take `Cc1cccc(C)c1-n1nnnc1[C@H](c1cccc(C(F)(F)F)c1)N1CCN(Cc2cc3ccccc3n2C)CC1` (racemic) [Compound 148, 2-{4-[[1-(2,6-dimethylphenyl)-1H-tetrazol-5-yl]-(3-trifluoromethylphenyl)methyl]piperazin-1-ylmethyl}-1-methyl-1H-indole]: the Ki on rat MCH1 receptor [1] and on human MCH receptor was at most 100 µM throughout. Also, the half-maximal inhibitory concentration (IC50) in assay [2] (100 μM or less list) and in assay [3] (100 μM or less list) was at most 100 µM each time.
Regarding `COc1ccc(/C=C/CN2CCN([C@@H](c3cccc(C(F)(F)F)c3)c3nnnn3-c3c(C)cccc3C)CC2)cc1` (racemic) [Compound 147, 1-[[1-(2,6-dimethylphenyl)-1H-tetrazol-5-yl]-(3-trifluoromethylphenyl)methyl]-4-[3-(4-methoxyphenyl)allyl]piperazine], the Ki on rat MCH1 receptor [1] and on human MCH receptor was at most 100 µM each time. Also, the IC50 in assay [2] (100 μM or less list) and in assay [3] (100 μM or less list) was at most 100 µM throughout.

By Ki is commonly meant a measure of affinity in units of concentration, obtained from inhibition or displacement. The term IC50 denotes the concentration needed to halve the response being measured.

Values taken from patent publication US7514438B2, “Melanin concentrating hormone receptor antagonist” (Amgen, Inc., priority 2003, dated 2009).
